The subject of data set [1] is BMDM macrophages. The data set can be described thus: MTT cytotoxicity on BMDM macrophages. As to conditions: Mus musculus, 72 h. It is filed as cell-based. The source says:
(§1) T. cruzi epimastigotes MHOM/VE/92/YBM venezuelan strain were used to test the anti T. cruzi in vitro studies. The strain was maintained in a modified LIT medium with 10% fetal bovine serum (FBS). Mouse bone marrow was used to obtain BMDM macrophages. Mouse fibroblast-conditioned medium L-929 was used for the differentiation and maintenance of BMDM macrophages. We evaluated through a colorimetric method the effect of compounds 8–23 on the promastigotes of L. brasiliensis. Briefly, 96-well plates were used, where 2 × 10^6 parasites/mL were seeded. A concentration of 50 μM was used for each compound and an incubation time of 96 h at 29 °C. 3-(4,5-dimethylthiazol-2-yl)-2,5-diphenyl tetrazolium bromide (MTT) 1 μg/mL was added and incubated in darkness for 4 h, acidic isopropanol (4N) was added and the plate was read at 570 nm in a spectrophotometer Synergy HT (Biotek). Miltefosine was used as a reference drug. The EC50 calculation of the selected compound was performed using growth curves. Direct counting was used to monitor the proliferation of parasites, three independent experiments were performed for each concentration of the compounds evaluated. The in vitro evaluations of compounds toxicity by MTT in VERO and BMDM cells follow a methodology described above with some modifications. The selectivity index was calculated with SI = CC50/EC50, where CC50 was the maximum concentration range of compounds 10, 21–23 used to evaluate cytotoxicity in VERO and BMDM cells. The trypanocidal activity of compounds 8–23 was evaluated on the viability of T. cruzi epimastigotes through a colorimetric method adapted with minor modifications. 2 × 10^6 parasites/mL were seeded in a 96-well plate, adding 50 μM of each derivative dissolved in DMSO (final concentration remained below 1%). The plate was incubated for 96 h at 29 °C. Then, 1 μg/mL of 3-(4,5-dimethylthiazol-2-yl)-2,5-diphenyl tetrazolium bromide (MTT) was added and incubated in darkness for 4 h. After this time, acidic isopropanol (4N) was added and the plate was read at 570 nm in a spectrophotometer Synergy HT (Biotek). Benznidazole was used as a reference drug. The in vitro evaluations of compounds toxicity by MTT in VERO and BMDM cells follow a methodology described above with some modifications. Cells were counted in suspension and seeded at 20 × 10^3 cells/well. The test was carried out in triplicate on 96-well microplates in different concentrations: 50 μM, 100 μM, 200 μM and 300 μM, untreated cells and reference drug (benznidazole) controls.

Data set [2] relates to K562. The data set can be described thus: MTS antiproliferative assay K562. It is filed as cell-based, human. As to conditions: for IC50: 72 h of incubation.
Data set [3] deals with promastigotes of Leishmania (V.) braziliensis strain MHOM/CO/87/UA301. The data set can be described thus: MTT viability of L. braziliensis promastigotes. Format: cell-based.
Method: Promastigotes of Leishmania (V.) braziliensis strain MHOM/CO/87/UA301 were isolated from footpad lesions in Balb/C mice previously infected. In the process of maintenance and differentiation of the parasites, the LTI medium (tryptose 15 g/L, yeast extract 5 g/L, liver extract 2 g/L, hemin-NaOH 0.02 g/L, glucose 4 g/L, NaCl 9 g/L, KCl 0.4 g/L Na2HPO4, 7.5 g/L at pH 7.4) supplemented with 10% fetal calf serum and maintained at 29 °C was used.
Briefly, 96-well plates were used, where 2 × 10^6 parasites/mL were seeded. A concentration of 50 μM was used for each compound and an incubation time of 96 h at 29 °C. 3-(4,5-dimethylthiazol-2-yl)-2,5-diphenyl tetrazolium bromide (MTT) 1 μg/mL was added and incubated in darkness for 4 h, acidic isopropanol (4N) was added and the plate was read at 570 nm in a spectrophotometer Synergy HT (Biotek). Miltefosine was used as a reference drug. The EC50 calculation of the selected compound was performed using growth curves. Direct counting was used to monitor the proliferation of parasites, three independent experiments were performed for each concentration of the compounds evaluated. The in vitro evaluations of compounds toxicity by MTT in VERO and BMDM cells follow a methodology described above with some modifications [60].
Data set [4] concerns VERO cells. Kind of data set: MTT cytotoxicity on VERO cells. To be noted: Chlorocebus sabaeus, 72 h. It is filed as cell-based, African green monkey. How it is done:
as §1, with “Vero cells” for “T. cruzi epimastigotes MHOM/VE/92/YBM venezuelan strain”, “derived from” for “used to test”, “kidney of an African green monkey, cells were” for “anti T. cruzi in vitro studies. The strain was”, “Dulbecco’s Modified Eagle’s Medium (DMEM), supplemented” for “a modified LIT medium”, “heat-inactivated FBS” for “fetal bovine serum (FBS). Mouse bone marrow was used to obtain BMDM macrophages. Mouse fibroblast-conditioned medium L-929 was used for the differentiation”, “penicillin-streptomycin solution 1% at 37 °C, 5% CO2 atmosphere and > 95% humidity.” for “maintenance of BMDM macrophages.”

Consider 1 compound from paper PMC9457600, “Synthesis, Leishmanicidal, Trypanocidal, Antiproliferative Assay and Apoptotic Induction of (2-Phenoxypyridin-3-yl)naphthalene-1(2H)-one Derivatives” (Molecules, 2022).

The term EC50 denotes the concentration at which the effect is half-maximal. The IC50 is the concentration at which inhibition is half-maximal. The low end stands for greater potency in that assay, the high end for weaker potency in that assay. Consider `COc1ccc2c(c1)CC/C(=C\c1cccnc1Oc1ccc(Cl)cc1)C2=O` [Compound 22, (E)-2-{[2-(4-Chlorophenoxy)pyridin-3-yl]methylene}-3,4-dihydro-6-methoxynaphthalen-1(2H)-one], for which the EC50 is 468 µM in data set [1]; 12.4 ± 1.15 µM in data set [3] (72 h, promastigotes); more than 100 µM in data set [4]. Further, the IC50 was 3.91 ± 0.14 µM in data set [2] and 3.91 to 4.33 µM in data set [2] (Homo sapiens, K562, 72 h). Moreover, the “times higher cytotoxicity against K562 than K562-TAX” value in data set [2] (ratio of IC50 values) is 5.5 times. Besides, the “SIB/Lb selectivity index on L. braziliensis/BMDM” value in data set [3] (SI = CC50/EC50) came to 38.
